Several values for one entry are separate records, joined by “and”; a condition that tells them apart may be missing. Equal values may be shown once.
Tests used:
[1] = tested on: bleomycin-induced skin fibrosis; assay: Bleomycin-induced skin fibrosis in mice; type: in vivo, C57BL/6 mice; set-up: Skin LOX activity: scale not given here
Experimental: With a pharmacokinetic and pharmacodynamic profile supportive of the potential as a potent topical anti-fibrotic treatment, we next moved to evaluate the in vivo efficacy of PXS-6302. Intradermal injections of bleomycin on alternate days for three weeks induces fibrosis[21],[22]. […] In this model, starting from Day 3 and continuing until Day 20, bleomycin-dosed mice (0.1U, alternate days), were treated once daily topically with 0% (vehicle) or 1.5% PXS-6302 oil in water cream (2 ×100 μL applications at a 10-min interval). […] As bleomycin also stimulates the expression of degrading enzymes such as matrix metalloproteases, the significant drop in hydroxyproline and immature crosslinks could be related to both the reduced production as well as the accelerated degradation of these matrix proteins.
(§1) Cell pellets or isolated tissue samples were completely hydrolyzed in 1.5 mL 6 M hydrochloric acid for 24 h at 105 °C. After complete hydrolysis, samples were dried using a vacuum dryer and reconstituted using 200 µL MilliQ water. The sample clean-up was performed using solid-phase extraction method which uses C18 and SCX solid-phase extraction cartridges for sample purification. The samples were run on UPLC-MS-MS (Mass Spectrometer: Thermo Scientific TSQ Endura Triple quadrupole, UPLC: Thermo Scientific Dionex UltiMate 3000) using Agilent RRHD SB-C18,2.1x50mm,1.8um analytical column and solvent A: 10 mM ammonium formate, 0.1% formic acid, 0.1% HFBA in H2O and solvent B: 10 mM ammonium formate, 0.1% formic acid, 0.1% HFBA in MeOH and analyzed as previously described. Limits of detection are listed in Supplementary Table S4.
8–10-week old C57BL/6 mice (n = 10 each group) were used to induce skin fibrosis. Bleomycin (Bleomycin sulfate from Streptomyces verticillicus, Euroasia) dry powder 1.5 IU/mg was reconstituted in saline at 2 IU/ml concentration. Starting on day 0 and continuing on alternate days thereafter, animals received subcutaneous injection of Bleomycin (0.1 IU in 50 µL volume) and/or saline on the right flank. For each animal, each dose was injected at a single site. The injections were continued for 20 days throughout the study. Starting from day three, vehicle cream or vehicle plus drug cream were applied topically once a daily treatment to a 2 cm × 2 cm area on the right dorsal flank of the animal for 20 days. On Day 21, all animals were euthanized and the skin tissue was collected for further histopathological analysis. The skin tissue was fixed in 4% PFA and sectioned skin was stained with Masson’s Trichrome, Collagen I and LOX and used to assess dermal fibrosis. Masson’s Trichrome was used to assess fibrotic index. Collagen Stain was subjectively scored for intensity as compared to control tissue. LOX Stain was subjectively scored as stain accumulation compared to control tissue. All images were assessed by assessors blinded to the treatment group. Composite skin/immunohistochemistry scoring tables used are in the Supplementary Information (Supplementary Tables S5, S6).

[2] = target: Serotonin (5-Hydroxytryptamine) 5-HT1A (Homo sapiens, UniProt P08908); assay: Eurofins panel 271110; type: binding
Sequence of Serotonin (5-Hydroxytryptamine) 5-HT1A (P08908 whole entry): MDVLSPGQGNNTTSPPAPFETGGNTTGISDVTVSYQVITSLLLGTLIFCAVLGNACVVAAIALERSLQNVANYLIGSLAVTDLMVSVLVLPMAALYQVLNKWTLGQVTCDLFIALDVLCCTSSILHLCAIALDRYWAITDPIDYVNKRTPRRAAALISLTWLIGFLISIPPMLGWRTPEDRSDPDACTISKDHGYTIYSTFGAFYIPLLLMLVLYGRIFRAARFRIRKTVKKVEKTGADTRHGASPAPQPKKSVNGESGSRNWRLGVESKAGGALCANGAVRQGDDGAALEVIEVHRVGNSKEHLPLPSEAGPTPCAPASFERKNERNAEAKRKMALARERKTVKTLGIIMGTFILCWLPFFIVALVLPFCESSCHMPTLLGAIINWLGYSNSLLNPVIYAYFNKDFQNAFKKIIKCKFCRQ

[3] = tested on: full-thickness excision injury scar; assay: Murine excision injury model; type: in vivo, C57BL6/J mice
Description: Having established promising in vivo anti-fibrotic efficacy, we next evaluated a full-thickness excision injury model in mice. Full-thickness excision injuries of approximately 1.1 cm^2 (approximately 2% body surface area) of dorsal skin were created under anesthesia. From Day 2 post-injury, animals received daily application of 0, 0.5, or 1.5% PXS-6302 oil in water cream for 28 days. At the end of the experiment, all animals were euthanised and scar tissue analyzed for collagen and cross-link content. […] Therefore, when applied after injury and during the healing phase, PXS-6302 reduced collagen crosslinking and total collagen deposition in the scar. Reassuringly, the efficacy of PXS-6302 was in line with earlier studies (performed with the first-generation inhibitor, PXS-4787, Supplementary Fig. S7) albeit with what appears to be a more comprehensive impact on crosslinking at a lower dose.
as §1
Nine-week-old C57BL6/J female mice (n = 8 per group) received a full-thickness excision injury of 1.1 cm^2 on dorsal area using a circular 12-mm biopsy punch (Acu-Punch, Badand Medical, P1250) (approximately 2% body surface area) under anesthesia. All animals received intramuscular injection of buprenorphine (0.1 mg/kg) as an analgesia. Paracetamol (1 mg/ml) was provided for 5 days post-injury in drinking water. Animals were allowed to recover for 24 h post-injury. Animals in the treatment group received twice a day application of 3% PXS-4787 cream for 28 days. For PXS-6302, once per day application of 1.5% concentration cream was used. At the end of the experiment, all animals were euthanised using an intraperitoneal injection of pentobarbitone (160 mg Kg-1) under Isoflurane anesthesia, and scar tissues were removed. The scar skin was fixed in 4% paraformaldehyde overnight at 4 °C. After fixation, tissues were washed in sterile PBS at room temperature. Samples were processed in Leica ASP300S Tissue Processor followed by embedding in paraffin blocks using tissue processor (Leica EG1150 modular tissue embedding center). The paraffin blocks were sectioned at 5 µm thickness using a wax microtome (fully automated Leica RM2255). For standard histology, the skin sections were stained with hematoxylin and eosin stain and Masson’s Trichrome stain. The stained sections were used to determine the collagen fiber orientation in the control and treatment specimens. All stained skin tissue sections were processed for whole slide imaging using a ScanScopeXT (Aperio Technologies, USA) at 20-x magnification. The digital images were collected and analyzed using ImageScope software (Aperio Techologies, Inc, USA). A piece of excised mouse scar tissue was processed for the collagen crosslinks extraction. The scar skin was weighed and homogenized in 900 µL PBS (FastPrep-24TM5G(MP) homogenizer). The tissue homogenate equivalent to 10 mg tissue was transferred to heat/acid resistant screw cap tube (VWR 16466-060) and the total volume of 870 µL was adjusted with PBS. The tissue homogenate was reduced with a Sodium borohydride buffer and processed for cross-link extraction protocol as mentioned in previous section.

[4] = 3% PXS-4787, individual samples
[5] = […] cream topically once daily, Day 3 to Day 20
[6] = 0.5 or […] cream daily for 28 days

NC/C=C(\F)CS(=O)(=O)c1ccccc1 [PXS-4787]
composite skin score ([1]; […] cream topically once daily): Reduced | immunohistochemistry COL1 score ([1]; […] cream topically once daily): decreas ed | immunohistochemistry LOX score ([1]; […] cream topically once daily): Decreased | inhibition at 10 µM ([2]; 10 µM): 0% | DLHNL [3, 4]: 32.598 pmol/mg tissue and 48.992 pmol/mg tissue and 38.94 pmol/mg tissue and 30.0045 pmol/mg tissue and 38.524 pmol/mg tissue and 51.535 pmol/mg tissue and 45.099 pmol/mg tissue and 36.456 pmol/mg tissue and 45.26 pmol/mg tissue | DPD [3, 4]: 0.2026 pmol/mg tissue and 0.9604 pmol/mg tissue and 0.9521 pmol/mg tissue and 0.3416 pmol/mg tissue and 0.3259 pmol/mg tissue and 0.4694 pmol/mg tissue and 0.5793 pmol/mg tissue and 0.3046 pmol/mg tissue | HLNL [3, 4]: 11.709 pmol/mg tissue and 8.873 pmol/mg tissue and 7.946 pmol/mg tissue and 7.092 pmol/mg tissue and 8.4919 pmol/mg tissue and 8.338 pmol/mg tissue and 7.8195 pmol/mg tissue and 7.455 pmol/mg tissue | HYP [3, 4]: 8529.4 pmol/mg tissue and 13422.8 pmol/mg tissue and 10345 pmol/mg tissue and 7129.2 pmol/mg tissue and 10620.5 pmol/mg tissue and 15497 pmol/mg tissue and 11840.8 pmol/mg tissue and 10529.6 pmol/mg tissue and 12893.7 pmol/mg tissue | PYD [3, 4]: 3.941 pmol/mg tissue and 2.065 pmol/mg tissue and 3.401 pmol/mg tissue and 3.561 pmol/mg tissue and 3.481 pmol/mg tissue and 3.75 pmol/mg tissue and 2.469 pmol/mg tissue and 2.034 pmol/mg tissue | collagen cross-links formation in mouse scar ([3]; 3% cream for 28 days): Reduced

NC/C=C(\F)C(F)(F)S(=O)(=O)c1ccccc1 [PXS-6302]
Skin LOX activity ([1]; Bleo + PXS-6302, individual animals): 0.8656 and 1.07 and 1.02 and 1.046 and 0.9944 and 1.027 and 1.022 and 1.017 and 1.088 | Skin thickness ([1]; PXS-6302, individual animals): 0.34 mm and 0.36 mm and 0.41 mm and 0.33 mm and 0.39 mm and 0.38 mm and 0.4 mm | composite skin score ([1]; […] cream topically once daily): significantly reduced | immunohistochemistry COL1 score ([1]; […] cream topically once daily): significantly reduced | immunohistochemistry LOX score ([1]; […] cream topically once daily): significantly reduced | LOX activity in skin [1, 5]: significant reduction | fibrosis as assessed by skin thickness [1, 5]: significantly reduced | hydroxyproline content [1, 5]: reduced | immature crosslinking (DHLNL and HLNL) [1, 5]: reduced | inhibition at 30 µM ([2]; read-out: % Inh.): 3% | DHLNL ([3]; 0.5%, individual animals): 67.3445 pmol/mg protein and 104.493 pmol/mg protein and 49.564 pmol/mg protein and 93.5833 pmol/mg protein and 114.502 pmol/mg protein and 104.151 pmol/mg protein and 87.6663 pmol/mg protein and 102.971 pmol/mg protein | DPD ([3]; 0.5%, individual animals): 0.09524 pmol/mg protein and 0.2563 pmol/mg protein and 0.2515 pmol/mg protein and 0.4184 pmol/mg protein and 0.4492 pmol/mg protein and 0.4037 pmol/mg protein and 0.2113 pmol/mg protein and 0.2885 pmol/mg protein | HLNL ([3]; 0.5%, individual animals): 0.7003 pmol/mg protein and 0.9861 pmol/mg protein and 0.7921 pmol/mg protein and 1.215 pmol/mg protein and 1.527 pmol/mg protein and 1.179 pmol/mg protein and 1.122 pmol/mg protein and 0.9282 pmol/mg protein | HYP ([3]; 0.5%, individual animals): 135437 pmol/mg protein and 169286 pmol/mg protein and 127310 pmol/mg protein and 207537 pmol/mg protein and 183083 pmol/mg protein and 195703 pmol/mg protein and 151852 pmol/mg protein and 169426 pmol/mg protein | PYD ([3]; 0.5%, individual animals): 1.932 pmol/mg protein and 5.635 pmol/mg protein and 3.784 pmol/mg protein and 5.7092 pmol/mg protein and 5.347 pmol/mg protein and 5.273 pmol/mg protein and 4.615 pmol/mg protein and 4.89 pmol/mg protein | hydroxyproline concentration in scar [3, 6]: dose-dependent reduction | mature and immature crosslinks in scar [3, 6]: dose-dependently diminished

Source: article PMC9500072, “Topical application of an irreversible small molecule inhibitor of lysyl oxidases ameliorates skin scarring and fibrosis” (Nature Communications, 2022)
